The nature of series [1]: Partition coefficient (logP). Type of series: physicochemical. To be noted: octanol/water.
Series [2] can be described thus: Logarithm of capacity factor was determined. Type of series: ADME.
For series [3], the target named is T1, Amine oxidase [flavin-containing] A (Homo sapiens, UniProt P21397).
T1 sequence (P21397 whole entry): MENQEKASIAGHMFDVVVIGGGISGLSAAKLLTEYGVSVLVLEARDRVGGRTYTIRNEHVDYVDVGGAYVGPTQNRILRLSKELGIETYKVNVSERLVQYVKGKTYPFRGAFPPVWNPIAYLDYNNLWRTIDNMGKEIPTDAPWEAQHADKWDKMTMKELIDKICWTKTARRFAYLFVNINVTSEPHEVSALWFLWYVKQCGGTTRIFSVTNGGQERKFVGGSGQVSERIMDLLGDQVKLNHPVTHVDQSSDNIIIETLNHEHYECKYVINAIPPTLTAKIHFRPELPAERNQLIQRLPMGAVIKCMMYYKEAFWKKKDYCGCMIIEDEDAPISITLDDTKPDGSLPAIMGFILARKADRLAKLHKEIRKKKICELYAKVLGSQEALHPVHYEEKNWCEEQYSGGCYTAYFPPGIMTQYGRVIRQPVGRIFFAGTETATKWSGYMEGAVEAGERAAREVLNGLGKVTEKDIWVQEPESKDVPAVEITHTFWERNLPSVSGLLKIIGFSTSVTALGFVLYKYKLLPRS
Description: Monoamine oxidase A inhibitory potency. Conditions: read-out: KiA.

Each structure is given as a SMILES string.

Turning to `COC[C@H]1CN(c2ccc(CCO)cc2)C(=O)O1`, the logP in series [1] was determined as 1.13. In series [2], the Log kw is reported as 1. In addition, the Ki in series [3] is 80 nM.
For `COC[C@H]1CN(c2ccc(OCC[C@@H](O)C(F)(F)F)cc2)C(=O)O1` [BEFLOXATONE], the logP in series [1] stood at 2.48. Besides, the Log kw in series [2] was 2.45. The Ki in series [3] stood at 3.5 nM.
On the same counts, the results for `COC[C@H]1CN(c2ccc(OCCCCO)cc2)C(=O)O1` are 1.84, 1.58 and 29 nM.
For `COC[C@H]1CN(c2ccc(CCCO)cc2)C(=O)O1`, the logP in series [1] was 1.27. The compound also had a Log kw in series [2] of 1.3. The Ki in series [3] amounted to 1.6 nM.
`COC[C@H]1CN(c2ccc(OCCC(C)=O)cc2)C(=O)O1` registered a logP in series [1] of 1.37. Moreover, the Log kw in series [2] was 1.43. For the same compound, in series [3], the Ki amounted to 46 nM.
Take `COC[C@H]1CN(c2ccc(OCCCC(C)O)cc2)C(=O)O1` (stereo partly drawn): the logP in series [1] was determined as 2.27. In series [2], this compound came in with a Log kw of 1.88. For the same compound, the Ki in series [3] turned out to be 13 nM.
In turn, `COC[C@H]1CN(c2ccc(OCC[C@@H](C)OC)cc2)C(=O)O1` had a logP in series [1] of 2.7. In series [2], this compound registered a Log kw of 2.21. In addition, the Ki in series [3] amounted to 170 nM.
For `COC[C@H]1CN(c2ccc(OCC[C@@H](C)O)cc2)C(=O)O1`, in that order: 1.71, 1.6 and 6.5 nM.
On the same counts, the results for `C=C(C)CCOc1ccc(N2C[C@H](COC)OC2=O)cc1` are 3.03, 3.08 and 28 nM.
For `COC[C@H]1CN(c2ccc(OCC(C)O)cc2)C(=O)O1` (stereo partly drawn), in that order: 1.17, 1.17 and 220 nM.
For the compound `COC[C@H]1CN(c2ccc(OCCO)cc2)C(=O)O1`, the logP in series [1] was found to be 0.77. In series [2], this compound yielded a Log kw of 1. For the same compound, in series [3], the Ki amounted to 390 nM.

What is called logP is a log measure of how a compound divides between an organic and an aqueous phase. High values mean higher lipophilicity, low ones lower lipophilicity.

The record behind these values is ChEMBL document CHEMBL1130827, “Molecular lipophilicity potential by CLIP, a reliable tool for the description of the 3D distribution of lipophilicity: application to 3-phenyloxazolidin-2-one, a prototype series of reversible MAOA inhibitors” (Bioorg Med Chem Lett, 1998).
